From patent EP4613273A1, “TREATMENT OF BONE LOSS” (priority 2024, dated 2025)
Counter-ions that a name gives are not always drawn. Like-named read-outs stand apart in the source and are kept apart here.

Assay: Plasma pharmacokinetic of MIV-701 after single and repeated oral administration of MIV-701 besylate salt in healthy cats
Type: in vivo
Settings: for Cmax at 312 h / Tmax at 312 h / AUC(0-inf) at 312 h / AUC(0-t) at 312 h / half-life at 312 h / Cmax / Tmax at 0 h / AUC(0-inf) / AUC(0-t) / half-life: cat; for AUC(0-inf) at 312 h / AUC(0-inf): read-out: AUC(0-infini) (converted); for AUC(0-t) at 312 h / AUC(0-t): read-out: AUC(0-tfinal) (converted); for half-life at 312 h / half-life: read-out: T1/2 elimination (converted)
Experimental: MIV-701 besylate salt was administered once daily for 14 days to 4 healthy cats at three increasing doses: 2 mg/kg, 10 mg/kg and 50 mg/kg.
The three doses were consecutively administered for 14 days with a >5-day washout period between two dose levels.
Each treatment period can be resumed as follows: • J0 (T+24h): first administration, withdrawal of blood samples for pharmacokinetic and plasma CTX-1 assessment (pre-dose and 0.5h, 1h, 2h, 4h, 8h and 24h after first drug administration), pre-dose blood samples for hematology and clinical biochemistry (baseline values for safety assessment). • J5 ([…]) and J8: pre-dose blood samples. • J13: last administration, withdrawal of plasma samples for pharmacokinetic and plasma CTX-1 assessment (pre-dose and 0.5h, 1h, 2h, 4h, 8h and 24h after last drug administration), pre-dose sampling for hematology and clinical biochemistry (baseline values for safety assessment). • J15 to J≥19: washout period.
After centrifugation of blood samples plasma aliquots were stored at -20°C._After thawing on ice, 30 µL of plasma were transferred into 1.5 ml microtube containing 270 µL acetonitrile. Microtubes were then vigorously stirred and then centrifuged (12000 rpm, 10 min, 4°C) and the supernatant was transferred in Matrix tube for LC-MS/MS analysis.
A calibration curve (9 points, 3 to 30 000 nM) was obtained by spiking plasma samples from naive cats with appropriate quantities of Compound I.
Equipment: LC-MS/MS Acquity I Class-Wevo TQD (Waters®): - Acquity I Class ∘ Column: Waters® Acquity BEH C8, 50*2.1mm, 1.7 µm (40°C) ∘ Mobile phase: • ▪ A: Ammonium Formate 5mM, pH=3.8 • ▪ B: Ammonimuformate 5 mM in CH3CN 5% aqueous, pH=3.8 ∘ Injection volume: 1 µL ∘ Speed: 600 µL/min ∘ Gradient: […]
- Xevo TQD • ∘ Source temperature: 150°C • ∘ Desolvatation temperature: 600°C • ∘ Cone gaz speed: 50L/h • ∘ Desolvatation gaz speed: 1200L/h - Analytes MS characteristics
Terminal elimination half-life (t1/2) was calculated according to the following formula: T1/2 elimination = ln(2)/kel [formula] kel= slope of ln(C)=f(temps) calculated on the last points of the curves (elimination phase)/ MIV-701 exposure (Area Under the Curve; AUCt) was calculated according to trapezoidal method accroding to the following formula: AUCt−>inf = [C]t /kel [formula]

[1] = plasma MIV-701, oral 2 mg/kg once daily, Day 13 (repeated)
[2] = plasma MIV-701, oral 2 mg/kg, Day 0 (single)
[3] = plasma MIV-701, oral 10 mg/kg once daily, Day 13 (repeated)
[4] = plasma MIV-701, oral 10 mg/kg, Day 0 (single)
[5] = plasma MIV-701, oral 50 mg/kg, Day 0 (single)

CC(C)C[C@H](NC(=O)c1ccc(-c2csc(N3CCN(C)CC3)n2)cc1)C(=O)N1C[C@H](F)[C@H]2OCC(O)(O)[C@H]21 [MIV-701 besylate salt, N-[(S)-1-((3aS,6S,6aS)-6-Fluoro-S-oxo-hexahydro-furo[3,2-b]pyrrole-4-carbony)-3-methyl-butyl]-4-[2-(4-methyl-piperazin-1-yl)-thiazol-4-yl]-benzamide benzenesulphonate]
plasma exposure (AUC) at D13 higher than AUC at D0 (2 mg/kg): 1.2 folds | plasma exposure (AUC) at D13 higher than AUC at D0 (10 mg/kg): 1.9 folds | Cmax at 312 h [1]: 141 nM | Tmax at 312 h [1]: 2 h | AUC(0-inf) at 312 h [1]: 0.984 µM·h | AUC(0-t) at 312 h [1]: 0.972 µM·h | half-life at 312 h [1]: 3.9 h | Cmax [2]: 122 nM | Tmax at 0 h [2]: 2 h | AUC(0-inf) [2]: 0.811 µM·h | AUC(0-t) [2]: 0.808 µM·h | half-life [2]: 2.9 h | Cmax at 312 h [3]: 663 nM | Tmax at 312 h [3]: 0.5 h | AUC(0-inf) at 312 h [3]: 5.3 µM·h | AUC(0-t) at 312 h [3]: 5.07 µM·h | half-life at 312 h [3]: 5.7 h | Cmax [4]: 249 nM | Tmax at 0 h [4]: 2 h | AUC(0-inf) [4]: 2.85 µM·h | AUC(0-t) [4]: 2.78 µM·h | half-life [4]: 4.6 h | Cmax [5]: 3890 nM | Tmax at 0 h [5]: 2 h | AUC(0-inf) [5]: 34.8 µM·h | AUC(0-t) [5]: 33.6 µM·h | half-life [5]: 4.9 h | Kel (4-24h) [1]: -0.179 h⁻¹ | Kel (4-24h) [2]: -0.236 h⁻¹ | Kel (4-24h) [3]: -0.122 h⁻¹ | Kel (4-24h) [4]: -0.152 h⁻¹ | Kel (4-24h) [5]: -0.142 h⁻¹
